The source of these data is patent EP2960339A1, “Method and kit for the identification of glycosyl transferase substrates” (Technische Universität München, priority 2014, dated 2015).

Broadly, the Km is the substrate concentration at which the rate is half of its maximum. A word on the kcat: it is the maximal rate divided by the concentration of active sites.

Where “and” joins values, the source holds several entries; their conditions need not be identical. Equal entries are not always repeated. Where two headings read alike, the source gives them in different places.

Common to all, as to assay type: biochemical
The target of assay [1] is T1, VvGT15c (Vitis vinifera, UniProt F6GUW0). The assay can be described thus: Substrate screening, radiochemical activity assay with UDP-[14C]glucose. Particulars: substrate screening, Figure 3. As to the method: (§1) In the initial screening, each reaction mixture (200 µL in total) contained Tris-HCl buffer (100 mM, pH 8, 10 mM 2-mercaptoethanol), 37 pmol UDP-[^14C]glucose (0.01 µCi, Biotrend, Köln, Germany), substrate (50 µL of a 1 mg/mL stock solution) and purified protein (0.5-0.8 µg/µL). The reaction mixture was incubated at 30 °C for 18.5 hours. The assays were stopped by adding 1 µL 24% trichloroacetic acid and extracted with 500 µL water-saturated 1-butanol. The organic phase was mixed with 2 mL Pro Flow P+ cocktail (Meridian Biotechnologies Ltd., Epsom, UK) and radioactivity was determined by liquid scintillation counting (LSC, Tri-Carb 2800TR, Perkin Elmer, Waltham MA, USA). Additionally, negative controls without substrate were performed.
(§2) After determining the optimal conditions for the best substrate of each gene, the substrate screening was repeated under these conditions.
(§3) The alleles of VvGT14a-c, 15a-c and 16 were isolated from V. vinifera cultivars and cloned in the expression vector pGEX-4T-1. The recombinant proteins were expressed with an N-terminal GST-tag, affinity purified and verified by SDS-PAGE and Western Blot using GST-specific antibody. Enzyme activity studies were performed with UDP-[^14C]glucose and various putative substrates (terpenols, flavonoids and different mono-alcohols) that are known to be glycosidically bound and present in grapes (Gunata et al., 1988).

The target of assay [2] is T2, VvGT14a (Vitis vinifera, UniProt F6H0R6). The assay is described as above. Particulars: for conversion of putative substrate (in words): substrate screening, Figure 3; for relative specific activity: relative to conversion of geraniol (100 %), extractable radioactivity. As to the method: as §1, §2, §3
In assay [3] the target is T3, VvGT16 (Vitis vinifera, UniProt F6HTJ4). The description is as above. Particulars: for conversion of putative substrate (in words): substrate screening, Figure 3; for relative specific activity: relative to conversion of benzyl alcohol (100 %), extractable radioactivity; for efficiency of transformation of R- and S-citronellol (in words): radiochemical assays, Figure 12. As to the method: as §1, §2, §3

Assay [4] addresses T4, VvGT15a (Vitis vinifera, UniProt F6GUW0). The description is as above. Particulars: for conversion of putative substrate (in words): substrate screening, Figure 3. As to the method: as §1, §2, §3
Assay [5] has as its target T5, VvGT15b (Vitis vinifera, UniProt F6GUW0). Particulars: substrates at fixed UDP-glucose 833 µM; UDP-glucose at constant geraniol 1.25 mM; Tris-HCl pH 7.5, 30 °C. As to the method:
(§4) The measurements were performed under the following conditions. […] The assay of VvGT15a-c was performed at 30 °C using a Tris-HCl buffer (100 mM, 10 mM 2-mercaptoethanol, pH 7.5) and 10 min (VvGT15c) or 30 min (VvGT15a-b) of incubation for the best substrates. The amount of the purified enzyme and the incubation time were adapted depending on the counting sensibility. The reaction was stopped by adding 1 µL 24% trichloroacetic acid and glucosides were extracted with 100 µL ethyl acetate. Radioactivity was determined by LSC.
(§5) The KM- and vmax-values were calculated from Lineweaver-Burk plots, Hanes-Woolf plots and non-linear fitting of the experimental data.

Assay [6] concerns the target T1, VvGT15c. On the procedure:
as §4, §5

Assay [7] addresses T4, VvGT15a. On the procedure: as §4, §5
The target of assay [8] is T2, VvGT14a. To be noted: for Km: monoterpenols at constant UDP-glucose […], UDP-glucose at fixed geraniol 100 µM, Tris-HCl pH 8.5, 30 °C; for kcat: pH 8.5.
In assay [9] the target is T5, VvGT15b. Put plainly: Substrate screening, radiochemical activity assay with UDP-[14C]glucose. Particulars: for conversion of putative substrate (in words): substrate screening, Figure 3. As to the method: as §1, §2, §3
In assay [10] the target is T2, VvGT14a. Put plainly: Activity based profiling using a physiologic aglycone library (radio-TLC, GC-MS). To be noted: Figure 7. As to the method: For the preparation of aglycone extracts 50 g (fresh weight) grape skins or 4 g (fresh weight) inflorescences of Gewurztraminer Gm 11-18 were ground to a fine powder in liquid nitrogen. The isolation of glycosides was carried out as described above (see metabolite analysis). The methanolic fraction, which was obtained after SPE, was enzymatically hydrolysed. Therefore, the dried sample was dissolved in citric-acid buffer (0.1 M, pH 4), 50 mg AR 2000 (an enzyme preparation with glucosidase activity prepared from Aspergillus niger; DSM Food Specialties Beverage Ingredients, Delft, Netherlands) was added and incubated for 24 h with exclusion of light. The liberated aglycones were extracted by 20 mL methyl-tert-butyl ether and the organic phase was reduced to 1000µL using a gentle stream of nitrogen.
Aliquots of this aglycone extract were incubated with UDP-glucose and various VvGT-enzymes. Optimum conditions at 30 °C for 24 hours were applied. Each solution contained 100 µL purified enzyme, 100-150 µL Tris-HCl buffer (100 mM, pH7.5 or 8.5, 10 mM 2-mercaptoethanol), 37 pmol UDP-[^14C]glucose (0.01 µCi) and 50-100 µL extract (dissolved in methyl-tert-butylether). The buffer was mixed with the extract and the organic solvent was gently vaporized with nitrogen. The missing volume was adjusted with buffer before the enzyme was added. The reaction was stopped by adding 1 µL 24% trichloroacetic acid and extracted with 500 µL ethyl acetate. After termination of the reaction free aglycones, which were not converted by VvGT14 and VvGT15, were measured via SPME-(Solid Phase Microextraction)-GC-MS. These residual, free aglycones were completely removed by extraction with dichloromethane. Enzymatically formed glucosides were extracted by ethyl acetate, which was removed under nitrogen. The residue was dissolved in methanol and analyzed by LC-MS to detect the generated monoterpenol glucosides. Enzymatic hydrolysis of the glucosides was performed using AR 2000 and 2 mL citric-acid-buffer. After hydrolysis, a 100 µL aliquot was used to detect volatile aglycones via SPME-GC-MS. The remaining solution was extracted with methyl-tert-butyl ether and reduced under nitrogen to approximately 200 µL. One µL were measured by GC-MS via liquid injection.
Assays containing UDP-[^14C]glucose and aglycone libraries or substrates were performed as described above and subsequently extracted with 500 µL ethyl acetate. The organic solvent was vaporized and the pellet was re-suspended in 10 µL methanol and was applied on Silica Gel 60 F254 plates (Merck, Darmstadt, Germany). The dried plates were developed in a solvent system chloroform:acetic acid:water (50/45/5, v:v:v). Plates were dried and analyzed by digital autoradiograph (digital autoradiograph, EG&G Berthold, Wildbad, Germany).
An aglycone library of the two tissues was obtained by enzymatic hydrolysis of the glycosides followed by liquid-liquid extraction of the released alcohols and acids. […] The formed glycosides were separated by thin layer chromatography (TLC) and visualized by radiodetection whereas identification could be achieved by LC-MS and NMR analysis and, after hydrolysis, by GC-MS and LC-MS (Figure 6).

The target in assay [11] is T3, VvGT16. Put plainly: Kinetics (KM, kcat) with UDP-[14C]glucose, liquid scintillation counting. Particulars: monoterpenes at constant UDP-glucose 512.5 µM; UDP-glucose at fixed geraniol 1.25 mM; Tris-HCl pH 8.5, 30 °C.
Where [12] appears, read: substrates at fixed UDP-glucose 833 µM, UDP-glucose at constant geraniol 1.25 mM, Tris-HCl pH 7.5, 30 °C.
The mark [13] stands for this setting: citronellol enantiomers, Figure 12, highest level of extractable radioactivity = 100 %.

T2 sequence (F6H0R6 entry or part of it): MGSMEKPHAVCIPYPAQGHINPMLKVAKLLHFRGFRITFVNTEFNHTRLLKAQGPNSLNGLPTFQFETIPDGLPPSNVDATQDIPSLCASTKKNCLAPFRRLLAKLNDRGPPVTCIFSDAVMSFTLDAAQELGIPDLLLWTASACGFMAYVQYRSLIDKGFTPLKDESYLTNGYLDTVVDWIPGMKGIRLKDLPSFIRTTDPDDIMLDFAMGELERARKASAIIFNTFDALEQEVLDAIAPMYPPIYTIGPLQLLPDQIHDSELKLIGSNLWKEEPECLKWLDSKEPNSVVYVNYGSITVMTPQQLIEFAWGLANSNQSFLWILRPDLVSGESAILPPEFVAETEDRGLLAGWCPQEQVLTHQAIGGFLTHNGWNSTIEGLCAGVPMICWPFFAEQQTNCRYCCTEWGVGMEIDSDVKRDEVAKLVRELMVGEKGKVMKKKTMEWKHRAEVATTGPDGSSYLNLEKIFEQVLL
T1 sequence (F6GUW0 entry or part of it): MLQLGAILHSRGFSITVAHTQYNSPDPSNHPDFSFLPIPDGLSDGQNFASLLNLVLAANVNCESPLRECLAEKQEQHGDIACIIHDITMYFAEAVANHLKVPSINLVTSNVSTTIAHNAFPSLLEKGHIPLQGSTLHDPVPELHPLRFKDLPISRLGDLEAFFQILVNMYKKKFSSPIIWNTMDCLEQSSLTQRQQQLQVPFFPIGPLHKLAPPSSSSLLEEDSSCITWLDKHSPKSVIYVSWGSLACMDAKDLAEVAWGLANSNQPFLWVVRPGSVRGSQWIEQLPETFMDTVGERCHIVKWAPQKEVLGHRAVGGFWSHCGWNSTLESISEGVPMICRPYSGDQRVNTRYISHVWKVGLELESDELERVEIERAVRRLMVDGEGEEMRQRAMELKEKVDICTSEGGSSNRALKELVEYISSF
T4 sequence (F6GUW0 entry or part of it): as above
T5 sequence (F6GUW0 entry or part of it): as above
T3 sequence (F6HTJ4 entry or part of it): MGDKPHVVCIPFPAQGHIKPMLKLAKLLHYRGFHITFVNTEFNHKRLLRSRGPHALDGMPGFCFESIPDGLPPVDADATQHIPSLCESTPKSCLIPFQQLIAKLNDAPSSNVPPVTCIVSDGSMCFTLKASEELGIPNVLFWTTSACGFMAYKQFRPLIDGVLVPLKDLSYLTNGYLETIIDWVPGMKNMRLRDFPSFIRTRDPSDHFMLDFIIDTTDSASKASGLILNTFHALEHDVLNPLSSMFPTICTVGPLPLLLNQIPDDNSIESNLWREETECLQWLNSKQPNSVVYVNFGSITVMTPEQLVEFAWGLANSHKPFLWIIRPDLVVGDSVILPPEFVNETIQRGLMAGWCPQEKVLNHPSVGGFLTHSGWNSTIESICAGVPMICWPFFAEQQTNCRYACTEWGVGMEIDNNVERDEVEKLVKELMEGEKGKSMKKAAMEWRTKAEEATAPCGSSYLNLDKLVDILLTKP

Turning to `CCC/C=C/CO` [trans 2-hexenol], the “conversion of putative substrate (in words)” value (“conversion” for short) at VvGT15c [1] is on record as “able to use”; on VvGT14a [2] it was “catalytic activity”; at VvGT16 [3], “transformed”; at VvGT15a [4], “able to use”.
On to `C=CC(C)(O)CCC=C(C)CO` (stereo not drawn) [8-hydroxylinalool], for which the “conversion” value at VvGT15c [1] is reported as “able to use”; at VvGT14a [2] it was “catalytic activity”; at VvGT15a [4], “able to use”. Moreover, the Km stood at 33 ± 1.8 µM on VvGT15b [5], 17 ± 0.2 µM at VvGT15c [6] (setting [12]), 32 ± 1.4 µM on VvGT15a [7] (setting [12]) and 48 ± 2 µM on VvGT14a [8]. Further, the kcat came out at 0.003 s⁻¹ at VvGT15b [5], 0.004 s⁻¹ on VvGT15c [6] (pH 7.5), 0.003 s⁻¹ on VvGT15a [7] (setting [12]) and 0.002 s⁻¹ at VvGT14a [8].
For the compound `C=C(C)CCO` [3-methyl-3-butenol], the “conversion” value on VvGT14a [2] is “catalytic activity”.
Take `CCCCCCO` [hexanol]: the “conversion” value on VvGT15b [9], on VvGT15c [1] and on VvGT15a [4] was “glucosylated primarily” in each case. Further, the relative specific activity on VvGT14a [2] and on VvGT16 [3] was more than 80% in each case.
`CC/C=C\CCO` [cis 3-hexenol]: the “conversion” value at VvGT14a [2] is recorded as “catalytic activity”; at VvGT16 [3] it was “transformed”.
For `CC(C)=CCC/C(C)=C\CO` [Nerol, (Z)-3,7-dimethyl-2,6-octadien-1-ol], the “aglycone liberated by enzymatic hydrolysis of the glucosides formed from the grape skin aglycone library (in words)” value on VvGT14a [10] is recorded as “remarkable quantities”. For the same compound, the “conversion” value at VvGT15b [9] is “glucosylated primarily”; at VvGT15c [1], “glucosylated primarily”; on VvGT16 [3] it was “transformed”; on VvGT15a [4] it was “glucosylated primarily”. Further, at VvGT14a [2], the relative specific activity is more than 80%. The Km was found to be 40 ± 3.7 µM at VvGT15b [5]; 28 ± 0.9 µM on VvGT15c [6] (setting [12]); 48 ± 1.7 µM on VvGT15a [7] (setting [12]); 10 ± 0.7 µM at VvGT14a [8]; 118 ± 4.7 µM at VvGT16 [11]. Besides, the turnover number (kcat) is 0.03 s⁻¹ at VvGT15b [5]; 0.06 s⁻¹ on VvGT15c [6] (pH 7.5); 0.04 s⁻¹ on VvGT15a [7] (pH 7.5); 0.02 s⁻¹ on VvGT14a [8]; 0.009 s⁻¹ at VvGT16 [11].
As for `C=CCc1ccc(O)c(OC)c1` [eugenol], the “conversion” value at VvGT14a [2] is reported as “catalytic activity”.
For the compound `O=c1c(O)c(-c2ccc(O)cc2)oc2cc(O)cc(O)c12` [kaempferol], the relative specific activity on VvGT14a [2] is given as less than 1%.
In the case of `CC(C)=CCC[C@H](C)CCO` [S-citronellol], the relative specific activity on VvGT15b [9] (setting [13]) and on VvGT15a [4] (setting [13]) was 100% throughout. For the same compound, the “efficiency of transformation of R- and S-citronellol (in words)” value at VvGT16 [3] is recorded as “same efficiency”. The Km turned out to be 55 ± 1.3 µM at VvGT15b [5], 20 ± 1.6 µM at VvGT15c [6] (setting [12]) and 29 ± 3 µM at VvGT15a [7] (setting [12]). Moreover, the values for the turnover number (kcat) on VvGT15b [5], on VvGT15c [6] (setting [12]) and on VvGT15a [7] (pH 7.5) were 0.03 s⁻¹, 0.03 s⁻¹ and 0.02 s⁻¹, respectively.
In the case of `CC(C)=CCC[C@@H](C)CCO` [R-citronellol, (R)-(+)-13-citronellol], on VvGT16 [3], the “efficiency of transformation of R- and S-citronellol (in words)” value was “same efficiency”.
As for `OCc1ccccc1` [benzyl alcohol], the “aglycone liberated by enzymatic hydrolysis of the glucosides formed from the grape skin aglycone library (in words)” value at VvGT14a [10] is on record as “remarkable quantities”. For the same compound, the “conversion” value on VvGT14a [2] was “catalytic activity”. The relative specific activity on VvGT16 [3] was > 80% and 100%.
For the compound `O=c1c(O)c(-c2ccc(O)c(O)c2)oc2cc(O)cc(O)c12` [quercetin], the relative specific activity at VvGT14a [2] is listed as less than 1%.
Consider `CCCCCCCCO` [octanol], for which the “conversion” value on VvGT15b [9], on VvGT15c [1] and at VvGT15a [4] was “glucosylated primarily” throughout. Also, the relative specific activity on VvGT14a [2] was more than 80%.
In the case of `CC(C)=CCCC(C)=CCCC(C)=CCO` [farnesol], the figures for the “conversion” value at VvGT14a [2] and at VvGT15a [4] were “catalytic activity” and “low activity”, respectively.
For the compound `CC(C)=CCO` [3-methyl-2-butenol], the entries for the “conversion” value at VvGT14a [2] and on VvGT16 [3] were “catalytic activity” and “transformed”, respectively.
Consider `Oc1ccc(-c2[o+]c3cc(O)cc(O)c3cc2O)cc1` [pelargonodin], for which the relative specific activity on VvGT14a [2] is on record as less than 1%.
Consider `Oc1cc(O)c2cc(O)c(-c3ccc(O)c(O)c3)[o+]c2c1` [cyanidin], for which the relative specific activity at VvGT14a [2] was less than 1%.
For the compound `N#CC(O)c1ccccc1` (stereo not drawn) [mandelonitrile], the “conversion” value on VvGT14a [2] was “catalytic activity”.
